Earlier results, collected in patent US20150141549A1, “ANTIBIOTIC PARTICLES AND PRODUCTION METHOD THEREOF” (Japan EnviroChemicals, Ltd., priority 2012, published 2015).

For `CCCCNC(=O)OCC#CI` [IPBC, 3-iodo-2-propynylbutylcarbamate], the water solubility is given as 150 ppm.
